{"source": "paper PMC5154799", "about": "(International journal of antimicrobial agents, 2016)", "molecular_target": "thioredoxin reductase (TrxR, TVAG_474980) (Trichomonas vaginalis, UniProt A0A8U0WQ27)", "test": "DTNB reduction assay with NADPH, recombinant TrxR and Trx, absorbance at […] nm", "type": "biochemical", "data": [{"smiles": "CC(=O)OC[C@H]1O[C@@H]([S-])[C@H](OC(C)=O)[C@@H](OC(C)=O)[C@@H]1OC(C)=O.CCP(CC)CC.[Au+]", "note": "[AF, auranofin]", "values": [{"measurement": "IC50", "value": 85, "unit": "nM"}]}]}
